System: HCV 1b genotype
Experiment: microbe, parasite or virus in culture
Type: cell-based, Hepatitis C virus
Details: HCV 1b replicon; read-out: Range: EC50 ranges against HCV 1b

Substance: methyl (2-((2S)-2-(7-(2-((2S)-1-(((methoxycarbonyl)amino)(4-oxaspiro[2.5]oct-7-yl)acetyl)-2-pyrrolidinyl)-1H-benzimidazol-5-yl)-4,5-dihydro-1H-naphtho[1,2-d]imidazol-2-yl)-1-pyrrolidinyl)-1-(4-oxaspiro[2.5]oct-7-yl)-2-oxoethyl)carbamate [QC12]
- EC50: 100 to 900 pM
